Results from BindingDB's records for patent US20250091994 (Kobe University, 2025).

What follows are molecules tested against GTPase HRas [G12V] (Homo sapiens, UniProt P01112, G12V) (assay: In Vitro Ras-Raf Binding Inhibitory Activity Assay).
GTPase HRas [G12V], sequence (P01112 whole entry G12V, looked up): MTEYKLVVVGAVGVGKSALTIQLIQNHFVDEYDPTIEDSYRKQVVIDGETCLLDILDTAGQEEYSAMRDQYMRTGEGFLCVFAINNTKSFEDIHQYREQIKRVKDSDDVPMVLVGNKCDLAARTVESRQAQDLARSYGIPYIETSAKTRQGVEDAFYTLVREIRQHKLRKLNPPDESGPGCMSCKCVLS
Method: The in vitro Ras-Raf binding inhibitory activity of the compound of the present invention was evaluated by an ELISA method described below. GST-c-Raf-1 RBD diluted with a Ras-Raf binding buffer (50 mM Tris-HCl pH7.4, 150 mM NaCl, 5 mM MgCl2, 1 mM EDTA, and 1% Triton-X100) was added to each well of a glutathione-coated 96-well plate (Thermo Fisher Scientific.), and was incubated at 30° C. for 1 hour, to immobilize Raf on the well. The unbound free Raf was eliminated by washing the well with the Ras-Raf binding buffer three times. Subsequently, GTPTS-bound HRasG12V diluted with the Ras-Raf binding buffer and each compound solution (final DMSO concentration: 10%) were applied to each well, and the resulting mixture was then incubated at 30° C. for 1 hour, so that Ras and Raf were allowed to bind to each other. Thereafter, the plate was washed with the Ras-Raf binding buffer twice, and was then subjected to a blocking treatment at room temperature for 20 minutes, using TBS-Tween {10 mM Tris-HCl pH 7.4, 150 mM NaCl, and 0.05% (w/v) Tween-20}-5% (w/v) bovine serum albumin (BSA). After that, an anti-HRas antibody (C-20, Santa Cruz) or an anti-HRas antibody (259, Santa Cruz), which had been 1000 times diluted with TBS-Tween-5% BSA, was added to the reaction mixture, and incubated at room temperature for 1 hours. After the treatment with the primary antibody, the plate was washed with TBS-Tween-5% BSA three times, and a horseradish peroxidase-labeled secondary antibody against rabbit immunoglobulin G (GE Healthcare) of 1000 times diluted with TBS-Tween-5% BSA, was added to the plate, followed by incubation at room temperature for 1 hour. After the treatment with the secondary antibody, the plate was washed with TBS-Tween-5% BSA three times, and a substrate solution (TMB) was then added to the plate, followed by incubation at room temperature for 15 minutes for coloration. Finally, 2 M H2SO4 was added to stop color development (coloration reaction kit: Nacalai Tesque).
Work on `COc1cc(/C=C2/C(=O)c3ccccc3N2C(C)=O)ccc1OCC(N)=O` [US20250091994, Example 1] yielded an IC50 of 6900 nM. With `COc1cc(/C=C2/C(=O)c3ccccc3N2C(C)=O)ccc1OCC(=O)N1CCOCC1` [US20250091994, Example 2] the IC50 was 7900 nM. With `CCOc1cc(/C=C2/C(=O)c3ccccc3N2C(C)=O)ccc1OCC(N)=O` [US20250091994, Example 13] the IC50 was 2500 nM. `COc1cc(/C=C2/C(=O)c3ccccc3N2C(C)=O)ccc1OCC(=O)N1CCCC1` [US20250091994, Example 14] gave an IC50 of 5700 nM. `COc1cc(/C=C2/C(=O)c3ccccc3N2C(C)=O)ccc1OCC(=O)Nc1ccccc1` [US20250091994, Example 15] was tested, and the IC50 was 7300 nM. `CC(=O)N1C(=Cc2ccc(OCC(N)=O)c(Cl)c2)C(=O)c2ccccc21` [US20250091994, Example 17] was tested, and the IC50 was 9600 nM. `COc1cc(/C=C2/C(=O)c3ccccc3N2C(C)=O)ccc1/C=C/C(N)=O` [US20250091994, Example 20] showed an IC50 of 10000 nM. In the case of `COc1cc(/C=C2/C(=O)c3ccccc3N2C(C)=O)ccc1OS(C)(=O)=O` [US20250091994, Example 21], the IC50 is reported as 7200 nM. `CC(=O)N1/C(=C\c2ccc(OCC(=O)N3CCOCC3)cn2)C(=O)c2ccccc21` [US20250091994, Example 22] gave an IC50 of 13000 nM. `COc1cc(/C=C2/C(=O)c3ccccc3N2C(C)=O)ccc1OCS(C)(=O)=O` [US20250091994, Example 24] was tested, and the IC50 was 2100 nM. With `COc1cc(/C=C2/C(=O)c3ccccc3N2C(C)=O)ccc1OC[S+](C)[O-]` (configuration not stated) [US20250091994, Example 25] the IC50 was 5900 nM. `COc1cc(/C=C2/C(=O)c3ccccc3N2C(C)=O)ccc1NC(=O)CN1CCOCC1` [US20250091994, Example 27] showed an IC50 of 2700 nM. Work on `CC(=O)N1C(=Cc2ccc3cc(C(=O)N4CCOCC4)ccc3n2)C(=O)c2ccccc21` [US20250091994, Example 28] yielded an IC50 of 880 nM. Work on `CC(=O)N1C(=Cc2ccc(OCC(=O)N3CCOCC3)c(-c3ccccc3)c2)C(=O)c2ccccc21` [US20250091994, Example 29] yielded an IC50 of 13000 nM. With `COc1cc(/C=C2/C(=O)c3ccccc3N2C(C)=O)ccc1CCC(N)=O` [US20250091994, Example 31] the IC50 was 13000 nM. For `CC(=O)N1/C(=C\c2ccc3cc(C#N)ccc3n2)C(=O)c2ccccc21` [US20250091994, Example 34], the IC50 was 2800 nM. In the case of `CC(=O)N1/C(=C\c2ncc(C(=O)N3CCOCC3)s2)C(=O)c2ccccc21` [US20250091994, Example 38], the IC50 is reported as 3700 nM. `CC(=O)N1/C(=C\c2ccc3cc(C(=O)N4CCN(C5COC5)CC4)ccc3n2)C(=O)c2ccccc21` [US20250091994, Example 41] was tested, and the IC50 was 4700 nM. `COCC(O)CN1CCN(C(=O)c2ccc3nc(/C=C4/C(=O)c5ccccc5N4C(C)=O)ccc3c2)CC1` (configuration not stated) [US20250091994, Example 42] showed an IC50 of 2800 nM. Work on `CC(=O)N1/C(=C/c2nc3ccc(/C=C/S(=O)(=O)N4CCOCC4)cc3s2)C(=O)c2ccccc21` [US20250091994, Example 43] yielded an IC50 of 7100 nM. `CC(=O)N1/C(=C\c2ccc3cc(C(=O)N4CC(C)OC(C)C4)ccc3n2)C(=O)c2ccccc21` (configuration not stated) [US20250091994, Example 44] showed an IC50 of 960 nM. `CC(=O)N1/C(=C\c2ccc3cc(CCC(=O)N4CCOCC4)ccc3n2)C(=O)c2ccccc21` [US20250091994, Example 45] showed an IC50 of 1200 nM. In the case of `CC(=O)N1/C(=C/c2nc3cc(C(=O)N4CCOCC4)ccc3s2)C(=O)c2ccccc21` [US20250091994, Example 48], the IC50 is reported as 3500 nM. In the case of `COc1cc(/C=C2/C(=O)c3ccccc3N2C(=O)c2ccccc2)ccc1OCC(N)=O` [US20250091994, Example 49], the IC50 is reported as 13000 nM. With `COc1cc(/C=C2/C(=O)c3cc(F)ccc3N2C(C)=O)ccc1OCC(=O)N1CCOCC1` [US20250091994, Example 50] the IC50 was 12000 nM. `COc1cc(/C=C2/C(=O)c3cccnc3N2C(C)=O)ccc1OCC(=O)N1CCOCC1` [US20250091994, Example 51] gave an IC50 of 2100 nM. Work on `CC(=O)N1/C(=C/c2nc(C(=O)N3CCOCC3)cs2)C(=O)c2ccccc21` [US20250091994, Example 55] yielded an IC50 of 6400 nM. For `CC(=O)N1/C(=C/c2nc3ccc(CNS(C)(=O)=O)cc3s2)C(=O)c2ccccc21` [US20250091994, Example 56], the IC50 was 570 nM. Work on `CC(=O)N1/C(=C/c2nc3ccc(C(=O)N4CCOCC4)cc3s2)C(=O)c2ccccc21` [US20250091994, Example 58] yielded an IC50 of 700 nM. Molecule `CC(=O)N1/C(=C\c2nc3ccc(C(=O)N4CCOCC4)cc3s2)C(=O)c2ccccc21` [US20250091994, Example 59] has an IC50 of 4000 nM. For `CC(=O)N1C(=Cc2ccc3ccc(C(=O)N4CCOCC4)cc3n2)C(=O)c2ccccc21` [US20250091994, Example 62], the IC50 was 5600 nM. Molecule `CC(=O)NCc1ccc2nc(/C=C3/C(=O)c4ccccc4N3C(C)=O)ccc2c1` [US20250091994, Example 63] has an IC50 of 2000 nM. Work on `CC(=O)N1C(=Cc2ccc3cc(CNS(C)(=O)=O)ccc3n2)C(=O)c2ccccc21` [US20250091994, Example 64] yielded an IC50 of 1100 nM. `CC(=O)N1/C(=C\c2ccc3cc(OCC(=O)N4CCOCC4)ccc3n2)C(=O)c2ccccc21` [US20250091994, Example 65] showed an IC50 of 2400 nM. `CC(=O)N1C(=Cc2ccc3cc(C(=O)N4CCOCC4)ccc3c2)C(=O)c2ccccc21` [US20250091994, Example 66] was tested, and the IC50 was 2300 nM. Work on `CC(=O)N1C(=Cc2ccc(C(=O)N3CCOCC3)cc2)C(=O)c2ccccc21` [US20250091994, Example 67] yielded an IC50 of 5600 nM. In the case of `CC(=O)N1/C(=C/c2ncc(C(=O)N3CCOCC3)s2)C(=O)c2ccccc21` [US20250091994, Example 68], the IC50 is reported as 2300 nM. `CC(=O)N1/C(=C\c2ccc3cc(CN(C(C)=O)C4CCOCC4)ccc3n2)C(=O)c2ccccc21` [US20250091994, Example 75] was tested, and the IC50 was 2100 nM. With `CC(=O)N1/C(=C\c2ccc3cc(CN(C4CCOCC4)S(C)(=O)=O)ccc3n2)C(=O)c2ccccc21` [US20250091994, Example 76] the IC50 was 1600 nM. `CC(=O)N1C(=Cc2ccc3cc(/C=C/C(=O)NC4CCN(C5COC5)CC4)ccc3n2)C(=O)c2ccccc21` [US20250091994, Example 79] showed an IC50 of 1100 nM. With `CC(=O)N1/C(=C\c2ccc3cc(CNC(=O)CN4CCOCC4)ccc3n2)C(=O)c2ccccc21` [US20250091994, Example 80] the IC50 was 900 nM. `CC(=O)N1/C(=C\c2cc(N=[N+]=[N-])c3cc(C(=O)N4CCOCC4)ccc3n2)C(=O)c2ccccc21` [US20250091994, Example 81] gave an IC50 of 1100 nM. With `CC(=O)N1/C(=C\c2cc(Cl)c3cc(C(=O)N4CCOCC4)ccc3n2)C(=O)c2ccccc21` [US20250091994, Example 82] the IC50 was 610 nM. For `CC(=O)N1C(=Cc2cc(-c3ccccc3)c3cc(C(=O)N4CCOCC4)ccc3n2)C(=O)c2ccccc21` [US20250091994, Example 83], the IC50 was 840 nM. In the case of `CCCCOc1cc(/C=C2/C(=O)c3ccccc3N2C(C)=O)nc2ccc(C(=O)N3CCOCC3)cc12` [US20250091994, Example 84], the IC50 is reported as 580 nM. For `CC(=O)N1/C(=C\c2cc(-c3cccnc3)c3cc(C(=O)N4CCOCC4)ccc3n2)C(=O)c2ccccc21` [US20250091994, Example 85], the IC50 was 580 nM. In the case of `CC(=O)N1/C(=C\c2cc(C#N)c3cc(C(=O)N4CCOCC4)ccc3n2)C(=O)c2ccccc21` [US20250091994, Example 86], the IC50 is reported as 1800 nM. For `CC(=O)N1/C(=C\c2cc(N3CCC(C#N)CC3)c3cc(C(=O)N4CCOCC4)ccc3n2)C(=O)c2ccccc21` [US20250091994, Example 87], the IC50 was 2100 nM. `CC(=O)N1CCN(c2cc(/C=C3/C(=O)c4ccccc4N3C(C)=O)nc3ccc(C(=O)N4CCOCC4)cc23)CC1` [US20250091994, Example 90] showed an IC50 of 1400 nM. `CC(=O)N1C(=Cc2cc(-c3ccc(Oc4ccccc4)cc3)c3cc(C(=O)N4CCOCC4)ccc3n2)C(=O)c2ccccc21` [US20250091994, Example 92] showed an IC50 of 2800 nM. In the case of `CC(=O)N1C(=Cc2cc(-c3cccnc3-c3ccccc3)c3cc(C(=O)N4CCOCC4)ccc3n2)C(=O)c2ccccc21` [US20250091994, Example 94], the IC50 is reported as 660 nM. In the case of `COCC(O)CN1CCN(C(=O)c2ccc3nc(/C=C4/C(=O)c5ccccc5N4C(C)=O)cc(-c4ccccc4-c4ccccc4)c3c2)CC1` (configuration not stated) [US20250091994, Example 96], the IC50 is reported as 350 nM. In the case of `CC(=O)N1C(=Cc2cc(-c3ccccc3-c3ccccc3)c3cc(C(=O)NC4CCN(C5COC5)CC4)ccc3n2)C(=O)c2ccccc21` [US20250091994, Example 97], the IC50 is reported as 510 nM. For `CC(=O)N1/C(=C/c2nc3cc(C(=O)N4CC(C)OC(C)C4)ccc3s2)C(=O)c2ccccc21` (configuration not stated) [US20250091994, Example 99], the IC50 was 780 nM. For `CC(=O)N1/C(=C/c2nc3ccc(C(=O)N4CC(C)OC(C)C4)cc3s2)C(=O)c2ccccc21` (configuration not stated) [US20250091994, Example 101], the IC50 was 780 nM. For `COc1cc(C=C2C(=O)c3ccc(F)cc3N2C(C)=O)ccc1OCC(=O)N1CCOCC1` [US20250091994, Example 103], the IC50 was 10000 nM. Molecule `COc1cc(C=C2C(=O)c3c(F)cccc3N2C(C)=O)ccc1OCC(=O)N1CCOCC1` [US20250091994, Example 104] has an IC50 of 9000 nM.
